Measured values as given in article PMC6862323, “Substitution of Arginine 120 in Human D-Amino Acid Oxidase Favors FAD-Binding and Nuclear Mistargeting” (Frontiers in Molecular Biosciences, 2019).
Read-outs that look alike come from different tables or passages of the source.

Tests used:
[1] = Standard DAAO activity assay of purified hDAAO variants (oxygen electrode, 28 mM D-alanine); type: biochemical; conditions: pH 8.5, 25°C
[2] = system: U87 glioblastoma cells; assay: Confocal analysis of cellular distribution of EYFP-hDAAO variants in transiently transfected U87 cells; type: cell-based, human
Procedure: Human U87 glioblastoma cells (ATCC) were cultured in DMEM supplemented with 10% fetal bovine serum, 1 mM sodium pyruvate, 2 mM L-glutamine, 1% non-essential amino acids, 1% penicillin/streptomycin, and 1% amphotericin B (Euroclone), at 37°C in 5% CO2. The cells were transfected either with the pEYFP-hDAAO-C3 construct (for the expression of the wild-type enzyme downstream of the enhanced yellow fluorescent protein, EYFP) (Sacchi et al., [2008], [2011]), the pEYFP-hDAAO(R120L)-C3, or the pEYFP-hDAAO(R120E)-C3 expression vectors. The latter constructs were obtained by mutagenesis using the QuikChange Lightning Site-Directed Mutagenesis Kit (Agilent), and the following primers: 5′-[…]-3′ and 5′-[…]-3′ for the R120E substitution, and 5-[…]-3′ and 5′-[…]-3′ for the R120L substitution.
For transient transfection, 2 ×10^4 cells were seeded into eight-well chamber slides (Sarstedt). At 24 h after seeding, cells were transfected with 2 μg plasmid DNA using a 4:1 ratio of FuGENE transfection reagent (Promega) to DNA. Then, 12.5 μL of transfection mix was added to 500 μL medium per well. Protein expression levels were monitored by using a fluorescence microscope (Olympus IX51) equipped with a FITC filter and by Western blot analysis using an anti-hDAAO antibody (Davids Biotechnologie) (Sacchi et al., [2008], [2011]).
At 24, 48, and 72 h after transfection, cells were washed twice with PBS and fixed with ice-cold 4% p-formaldehyde and 4% sucrose for 10 min at room temperature. After fixation, cells were washed twice with PBS and blocked by incubation in PBS supplemented with 0.2% Triton X-100 and 4% horse serum for 30 min at room temperature. Peroxisomes were stained using rabbit polyclonal anti-PMP70 (peroxisomal membrane protein 70, Sigma), diluted 1:500 in PBS, 0.1% Triton X-100, and 4% horse serum overnight at 4°C; they were then washed twice in PBS and 1% horse serum and incubated for 1 h at room temperature (light protected) with goat anti-rabbit Dylight 550 secondary antibodies (Abcam) diluted 1:400 in PBS, 0.1% Triton X-100, and 1.5% horse serum. Cells were then extensively washed in PBS and nuclei were stained with DRAQ5™ (Thermo Scientific) and diluted 1:500 in PBS for 10 min at room temperature in the dark. Cells were washed three times with PBS and stored in PBS at 4°C until imaging.
Immunostained cells were imaged using an inverted laser scanning confocal microscope (TCS SP5, Leica Microsystems), equipped with a 63.0 ×1.25 NA plan apochromatic oil immersion objective. Confocal image stacks were acquired using the Leica TCS software with a sequential mode to avoid interference between each channel and without saturating any pixel. Cells in 10–15 non-magnified optical fields were analyzed for each condition (i.e., different EYFP-hDAAO expression constructs at different times after transfection). The fluorescence signal corresponding to the overexpressed EYFP-hDAAO variants was monitored by excitation at 514 nm (yellow channel); the peroxisomal and nuclear cellular compartments were imaged by excitation at 546 nm (red channel) and 647 nm (blue channel), respectively.
U87 glioblastoma cells were transiently transfected with a pEYFP-hDAAO-C3 plasmid encoding for EYFP-hDAAO chimeric proteins harboring R, E, or L at position 120 of the flavoenzyme. […] A similar amount of transfected cells (expressing EYFP-hDAAO protein) was obtained for all three constructs (Table 4). The percentage of cells showing a cytosolic, peroxisomal, and nuclear localization of the flavoenzyme was determined by comparing the yellow fluorescence signal of EYFP-hDAAO variants with those of the markers PMP-70 (for peroxisomes) and DRAQ5™ dye (for nuclei, Figure 5). The amount of cytosolic wild-type EYFP-hDAAO decreased with time after transfection (28% of the signal is cytosolic at 72 h vs. 94% at 24 h), as did the amount of nuclear signal (Table 4 and Figure 6). […]

[3] = biological target: T1, R120E hDAAO variant (Homo sapiens, UniProt P14920, R120E); assay: FAD and ligand binding by quenching of protein fluorescence, R120E hDAAO
T1 construct: His-tag (N); made in house; host or cells: E. coli BL21 (DE3) Star
Procedure: (§1) Protein fluorescence spectra were recorded between 300 and 400 nm, with excitation at 280 nm using a Jasco FP-750 instrument (excitation slit of 10 nm; emission slit of 5 nm) in 10 mM potassium phosphate, pH 8.0, 1% (v/v) glycerol, 5 mM 2-mercaptoethanol, […]

[4] = biological target: T2, R120L hDAAO variant (Homo sapiens, UniProt P14920, R120L); assay: FAD and ligand binding by quenching of protein fluorescence, R120L hDAAO
T2 construct: His-tag (N); made in house; host or cells: E. coli BL21 (DE3) Star
Procedure: as §1

[5] = biological target: wild-type hDAAO; conditions: cited from earlier work
[6] = system: W209R hDAAO; parameters: method as in Cappelletti et al., 2015; conditions: compared with wild-type hDAAO; ref Cappelletti et al., 2015; cited from earlier work
[7] = system: wild-type hDAAO; parameters: method as in Molla et al. (2006) and Murtas et al. (2017); conditions: air saturation, 25°C, pH 8.5, ref Molla et al. (2006) and Murtas et al. (2017), cited from earlier work; for Km: read-out: apparent Km
[8] = biological target: T1, R120E hDAAO variant; assay: Apparent kinetic parameters on D-amino acids (oxygen electrode), R120E hDAAO; type: biochemical; conditions: air saturation, 25°C, pH 8.5, 0.2 mM FAD
Procedure: (§2) The kinetic parameters were determined on different D-amino acids, employing increasing substrate concentrations (Molla et al., [2000], [2006]). The apparent kinetic parameters were calculated using the initial reaction rate according to a Michaelis–Menten equation using the Kaleidagraph software (Synergy Software, Reading, PA, USA).
(§3) The apparent kinetic parameters were calculated according to a Michaelis–Menten equation using the initial velocity values determined at increasing D-amino acid concentrations and a fixed O2 concentration (air saturation) at pH 8.5 and 25°C, in the presence of 0.2 mM FAD to avoid apoprotein formation for wild-type hDAAO.

[9] = biological target: T2, R120L hDAAO variant; assay: Apparent kinetic parameters on D-amino acids (oxygen electrode), R120L hDAAO; type: biochemical; conditions: air saturation, 25°C, pH 8.5, 0.2 mM FAD
Procedure: as §2, §3

[10] = apoprotein, no benzoate, read-out: FAD Kd, free form, first saturation phase
[11] = apoprotein, no benzoate, read-out: FAD Kd, free form, second saturation phase
[12] = in presence of 70 μM benzoate, read-out: FAD Kd, benzoate complex, first saturation phase
[13] = in presence of 70 μM benzoate, read-out: FAD Kd, benzoate complex, second saturation phase
[14] = read-out: Benzoate Kd, first saturation phase
[15] = read-out: Benzoate Kd, second saturation phase

T2 sequence (P14920 whole entry R120L): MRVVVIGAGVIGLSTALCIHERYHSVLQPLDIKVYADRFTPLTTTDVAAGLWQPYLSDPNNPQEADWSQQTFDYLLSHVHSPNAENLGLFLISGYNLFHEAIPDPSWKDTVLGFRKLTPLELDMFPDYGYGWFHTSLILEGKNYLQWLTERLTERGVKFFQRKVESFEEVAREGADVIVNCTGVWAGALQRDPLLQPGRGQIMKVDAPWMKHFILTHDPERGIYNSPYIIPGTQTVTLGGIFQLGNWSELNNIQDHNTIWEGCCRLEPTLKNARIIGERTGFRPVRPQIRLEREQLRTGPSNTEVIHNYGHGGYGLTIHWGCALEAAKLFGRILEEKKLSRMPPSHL
T1 sequence (P14920 whole entry R120E): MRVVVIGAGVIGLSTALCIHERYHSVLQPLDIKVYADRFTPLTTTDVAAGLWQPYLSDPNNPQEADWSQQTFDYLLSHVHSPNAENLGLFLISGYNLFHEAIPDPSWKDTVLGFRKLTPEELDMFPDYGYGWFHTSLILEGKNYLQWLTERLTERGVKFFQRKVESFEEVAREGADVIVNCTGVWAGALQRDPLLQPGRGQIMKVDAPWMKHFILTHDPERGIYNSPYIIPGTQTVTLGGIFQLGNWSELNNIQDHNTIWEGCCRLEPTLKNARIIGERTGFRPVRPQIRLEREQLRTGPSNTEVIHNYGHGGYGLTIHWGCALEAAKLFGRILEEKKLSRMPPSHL

Molecule: R120L: hDAAO variant with Arg120 substituted by leucine (His-tagged from E. coli; EYFP-tagged in U87 cells)
- Specific activity [1]: 17.6 U/mg protein
- hDAAO cellular distribution: A, large cytosolic aggregates detected ([2]; 24 h after transfection): 41.5 % of transfected cells
- hDAAO cellular distribution: C, cytosol ([2]; 24 h after transfection): 93.1 % of transfected cells
- hDAAO cellular distribution: C/P, mixed, cytosol and peroxisomes ([2]; 24 h after transfection): 3.8 % of transfected cells
- hDAAO cellular distribution: N, nucleus ([2]; 24 h after transfection): 20.8 % of transfected cells
- hDAAO cellular distribution: P, peroxisomes ([2]; 24 h after transfection): 3.1 % of transfected cells
- hDAAO cellular distribution: A, large cytosolic aggregates detected ([2]; 48 h after transfection): 22.6 % of transfected cells
- hDAAO cellular distribution: C, cytosol ([2]; 48 h after transfection): 59.7 % of transfected cells
- hDAAO cellular distribution: C/P, mixed, cytosol and peroxisomes ([2]; 48 h after transfection): 21.0 % of transfected cells
- hDAAO cellular distribution: N, nucleus ([2]; 48 h after transfection): 20.2 % of transfected cells
- hDAAO cellular distribution: P, peroxisomes ([2]; 48 h after transfection): 19.4 % of transfected cells
- hDAAO cellular distribution: A, large cytosolic aggregates detected ([2]; 72 h after transfection): 35.6 % of transfected cells
- hDAAO cellular distribution: C, cytosol ([2]; 72 h after transfection): 45.5 % of transfected cells
- hDAAO cellular distribution: C/P, mixed, cytosol and peroxisomes ([2]; 72 h after transfection): 21.2 % of transfected cells
- hDAAO cellular distribution: N, nucleus ([2]; 72 h after transfection): 13.1 % of transfected cells
- hDAAO cellular distribution: P, peroxisomes ([2]; 72 h after transfection): 34.3 % of transfected cells

Molecule: Cc1cc2nc3c(=O)[nH]c(=O)nc-3n(C[C@H](O)[C@H](O)[C@H](O)COP(=O)(O)OP(=O)(O)OC[C@H]3O[C@@H](n4cnc5c(N)ncnc54)[C@H](O)[C@@H]3O)c2cc1C [FAD]
- amplitude of fluorescence change, FAD binding, free form, first phase ([3]; apoprotein, no benzoate): 65%
- amplitude of fluorescence change, FAD binding, free form, second phase ([3]; apoprotein, no benzoate): 35%
- Kd [3, 10]: 0.05 ± 0.01 µM
- Kd [3, 11]: 32 ± 3 µM
- amplitude of fluorescence change, FAD binding, benzoate complex, first phase ([3]; in presence of 70 μM benzoate): 65%
- amplitude of fluorescence change, FAD binding, benzoate complex, second phase ([3]; in presence of 70 μM benzoate): 35%
- Kd [3, 12]: 0.61 ± 0.08 µM
- Kd [3, 13]: ≥ 30 µM
- amplitude of fluorescence change, FAD binding, free form, first phase ([4]; apoprotein, no benzoate): 60%
- amplitude of fluorescence change, FAD binding, free form, second phase ([4]; apoprotein, no benzoate): 40%
- Kd [4, 10]: 0.05 ± 0.01 µM
- Kd [4, 11]: 23.1 ± 1 µM
- amplitude of fluorescence change, FAD binding, benzoate complex, first phase ([4]; in presence of 70 μM benzoate): 75%
- amplitude of fluorescence change, FAD binding, benzoate complex, second phase ([4]; in presence of 70 μM benzoate): 25%
- Kd [4, 12]: 0.07 ± 0.01 µM
- Kd [4, 13]: ≥ 20 µM
- Kd ([5]; apoprotein, no benzoate, ref Murtas et al. (2017), read-out: FAD Kd, free form, first saturation phase): 0.43 ± 0.02 µM
- Kd ([5]; apoprotein, no benzoate, ref Murtas et al. (2017), read-out: FAD Kd, free form, second saturation phase): ≥ 30 µM
- Kd ([5]; in presence of 70 μM benzoate, monophasic, ref Murtas et al. (2017), read-out: FAD Kd, benzoate complex): 0.48 ± 0.02 µM
- tighter FAD-binding (fold) [6]: 4 fold

Molecule: C[C@@H](N)C(=O)O [D-Ala, D-alanine]
- apparent kcat [7]: 5.2 ± 0.1 s⁻¹
- Km [7]: 1300 ± 200 µM

Molecule: R120E: hDAAO variant with Arg120 substituted by glutamate (His-tagged from E. coli; EYFP-tagged in U87 cells)
- Specific activity [1]: 21.0 U/mg protein
- hDAAO cellular distribution: A, large cytosolic aggregates detected ([2]; 24 h after transfection): 29.7 % of transfected cells
- hDAAO cellular distribution: C, cytosol ([2]; 24 h after transfection): 86.7 % of transfected cells
- hDAAO cellular distribution: C/P, mixed, cytosol and peroxisomes ([2]; 24 h after transfection): 7.8 % of transfected cells
- hDAAO cellular distribution: N, nucleus ([2]; 24 h after transfection): 36.7 % of transfected cells
- hDAAO cellular distribution: P, peroxisomes ([2]; 24 h after transfection): 6.3 % of transfected cells
- hDAAO cellular distribution: A, large cytosolic aggregates detected ([2]; 48 h after transfection): 31.3 % of transfected cells
- hDAAO cellular distribution: C, cytosol ([2]; 48 h after transfection): 56.7 % of transfected cells
- hDAAO cellular distribution: C/P, mixed, cytosol and peroxisomes ([2]; 48 h after transfection): 14.9 % of transfected cells
- hDAAO cellular distribution: N, nucleus ([2]; 48 h after transfection): 27.6 % of transfected cells
- hDAAO cellular distribution: P, peroxisomes ([2]; 48 h after transfection): 28.4 % of transfected cells
- hDAAO cellular distribution: A, large cytosolic aggregates detected ([2]; 72 h after transfection): 18.2 % of transfected cells
- hDAAO cellular distribution: C, cytosol ([2]; 72 h after transfection): 40.3 % of transfected cells
- hDAAO cellular distribution: C/P, mixed, cytosol and peroxisomes ([2]; 72 h after transfection): 18.2 % of transfected cells
- hDAAO cellular distribution: N, nucleus ([2]; 72 h after transfection): 24.0 % of transfected cells
- hDAAO cellular distribution: P, peroxisomes ([2]; 72 h after transfection): 41.6 % of transfected cells

Molecule: O=C(O)c1ccccc1 [Benzoate, benzoate]
- Kd [3, 14]: 0.16 ± 0.01 µM
- Kd [3, 15]: 7980 µM
- Kd ([3]; read-out: Kd for the second phase of binding): ~8000 µM
- Kd [4, 14]: 0.27 ± 0.12 µM
- Kd [4, 15]: 6200 µM
- Kd ([5]; ref Murtas et al. (2017), read-out: Benzoate Kd, first saturation phase): 0.33 ± 0.04 µM
- Kd ([5]; ref Murtas et al. (2017), read-out: Benzoate Kd, second saturation phase): 2590 µM
- Kd ([5]; ref Murtas et al., 2017, read-out: Kd for the second phase of binding): 2600 µM

Molecule: N[C@H](CO)C(=O)O [D-Ser, D-serine]
- Km [8]: 17600 ± 3500 µM
- apparent kcat [8]: 8.5 ± 0.4 s⁻¹
- Km [9]: 26700 ± 4500 µM
- apparent kcat [9]: 11.3 ± 0.4 s⁻¹
- apparent kcat [7]: 3.0 ± 0.1 s⁻¹
- Km [7]: 7500 ± 500 µM

Molecule: N[C@H](CS)C(=O)O [D-Cys, D-cysteine]
- Km [8]: 600 ± 100 µM
- apparent kcat [8]: 9.9 ± 0.5 s⁻¹
- Km [9]: 700 ± 100 µM
- apparent kcat [9]: 15.6 ± 0.7 s⁻¹
- apparent kcat [7]: 8.6 ± 0.2 s⁻¹
- Km [7]: 600 ± 100 µM
